Source: ChEMBL document CHEMBL1158255, “New polyoxypregnane ester derivatives from Leptadenia hastata” (1996)

What was measured:
Type in all cases: functional
Raji [1] = assay: Antitumor activity against human Raji cells assessed as DNA synthesis at 0.1 ug/mL by [3H]thymidine incorporation assay relative to control
Raji [2] = assay: Antitumor activity against human Raji cells assessed as DNA synthesis at 0.5 ug/mL by [3H]thymidine incorporation assay relative to control
Raji [3] = assay: Antitumor activity against human Raji cells assessed as DNA synthesis at 1 ug/mL by [3H]thymidine incorporation assay relative to control
Raji [4] = assay: Cell cycle arrest in human Raji cells assessed as accumulation in S phase at 0.1 ug/mL
Raji [5] = assay: Cell cycle arrest in human Raji cells assessed as accumulation in S phase at 0.5 ug/mL
Raji [6] = assay: Cell cycle arrest in human Raji cells assessed as accumulation in S phase at 1 ug/mL

Compound	Activity (Raji [1])	Activity (Raji [2])	Activity (Raji [3])	Activity (Raji [4])	Activity (Raji [5])	Activity (Raji [6])
CO[C@H]1[C@@H](O)[C@H](O[C@H]2[C@@H](OC)C[C@H](O[C@H]3[C@@H](OC)C[C@H](O[C@H]4[C@@H](OC)C[C@H](O[C@H]5CC[C@@]6(C)C(=CC[C@]7(O)[C@@H]6C[C@@H](OC(=O)/C=C/c6ccccc6)[C@@]6(C)[C@]7(O)CC[C@@]6(O)C(C)=O)C5)O[C@@H]4C)O[C@@H]3C)O[C@@H]2C)O[C@H](C)[C@H]1O[C@@H]1O[C@H](CO)[C@@H](O)[C@H](O)[C@H]1O	41%	21%	14%	22%	11%	4%
CO[C@H]1[C@@H](O)[C@H](O[C@H]2[C@@H](OC)C[C@H](O[C@H]3[C@@H](OC)C[C@H](O[C@H]4[C@@H](OC)C[C@H](O[C@H]5CC[C@@]6(C)C(=CC[C@]7(O)[C@@H]6C[C@@H](OC(=O)c6ccccc6)[C@@]6(C)[C@]7(O)CC[C@@]6(O)[C@H](C)OC(=O)/C=C/c6ccccc6)C5)O[C@@H]4C)O[C@@H]3C)O[C@@H]2C)O[C@H](C)[C@H]1O[C@@H]1O[C@H](CO)[C@@H](O)[C@H](O)[C@H]1O	15%	14%	14%	4%	6%	4%
CO[C@@H]1[C@@H](O)[C@H](O[C@H]2[C@@H](OC)C[C@H](O[C@H]3[C@@H](OC)C[C@H](O[C@H]4[C@@H](OC)C[C@H](O[C@H]5CC[C@@]6(C)C(=CC[C@]7(O)[C@@H]6C[C@@H](OC(=O)c6ccccc6)[C@@]6(C)[C@]7(O)CC[C@@]6(O)[C@H](C)OC(=O)/C=C/c6ccccc6)C5)O[C@@H]4C)O[C@@H]3C)O[C@@H]2C)O[C@H](C)[C@H]1O[C@@H]1O[C@H](CO)[C@@H](O)[C@H](O)[C@H]1O	13%	14%	16%	5%	4%	5%
COC1C[C@H](O[C@H]2[C@@H](OC)C[C@H](O[C@H]3[C@@H](OC)C[C@H](O[C@H]4CC[C@@]5(C)C(=CC[C@]6(O)[C@@H]5C[C@@H](OC(C)=O)[C@@]5(C)[C@]6(O)CC[C@@]5(O)C(C)=O)C4)O[C@@H]3C)O[C@@H]2C)O[C@H](C)[C@H]1O[C@@H]1O[C@H](C)[C@@H](O[C@@H]2O[C@H](CO)[C@@H](O)[C@H](O)[C@H]2O)[C@@H](OC)[C@H]1O (single isomer, unassigned)	98%	87%	69%	30%	28%	26%
COC1C[C@H](O[C@H]2[C@@H](OC)C[C@H](O[C@H]3[C@@H](OC)C[C@H](O[C@H]4CC[C@@]5(C)C(=CC[C@]6(O)[C@@H]5C[C@@H](OC(C)=O)[C@@]5(C)[C@]6(O)CC[C@@]5(O)[C@H](C)O)C4)O[C@@H]3C)O[C@@H]2C)O[C@H](C)[C@H]1O[C@@H]1O[C@H](C)[C@@H](O[C@@H]2O[C@H](CO)[C@@H](O)[C@H](O)[C@H]2O)[C@@H](OC)[C@H]1O (single isomer, unassigned)	98%	83%	69%	32%	30%	28%
COC1C[C@H](O[C@@H]2[C@@H](C)O[C@@H](O[C@H]3[C@@H](OC)C[C@H](O[C@H]4CC[C@@]5(C)C(=CC[C@]6(O)[C@@H]5C[C@@H](OC(=O)/C=C/c5ccccc5)[C@@]5(C)[C@]6(O)CC[C@@]5(O)[C@H](C)OC(=O)c5ccccc5)C4)O[C@@H]3C)C[C@H]2OC)O[C@H](C)[C@H]1O[C@@H]1O[C@H](C)[C@@H](O[C@@H]2O[C@H](CO)[C@@H](O)[C@H](O)[C@H]2O)[C@@H](OC)[C@H]1O (single isomer, unassigned)	16%	16%	15%	6%	5%	3%
COC1C[C@H](O[C@@H]2[C@@H](C)O[C@@H](O[C@H]3[C@@H](OC)C[C@H](O[C@H]4CC[C@@]5(C)C(=CC[C@]6(O)[C@@H]5C[C@@H](OC(C)=O)[C@@]5(C)[C@]6(O)CC[C@@]5(O)[C@H](C)O)C4)O[C@@H]3C)C[C@H]2OC)O[C@H](C)[C@H]1O[C@@H]1O[C@H](C)[C@@H](O[C@@H]2O[C@H](CO)[C@@H](O)[C@H](O)[C@H]2O)[C@@H](OC)[C@H]1O (single isomer, unassigned)	98%	89%	65%	34%	30%	18%
COC1C[C@H](O[C@H]2[C@@H](OC)C[C@H](O[C@H]3[C@@H](OC)C[C@H](O[C@H]4CC[C@@]5(C)C(=CC[C@]6(O)[C@@H]5C[C@@H](OC(=O)/C=C/c5ccccc5)[C@@]5(C)[C@]6(O)CC[C@@]5(O)[C@H](C)O)C4)O[C@@H]3C)O[C@@H]2C)O[C@H](C)[C@H]1O[C@@H]1O[C@H](C)[C@@H](O[C@@H]2O[C@H](CO)[C@@H](O)[C@H](O)[C@H]2O)[C@@H](OC)[C@H]1O (single isomer, unassigned)	59%	33%	16%	33%	18%	10%
